Values quoted from earlier work as cited in patent US20120059013A1, “METHOD OF TREATING EARLY MORNING AKINESIA IN SUBJECTS HAVING PARKINSON'S DISEASE” (priority 2010, published 2012).

Experiments:
[1] = test system: hepatic cytochrome P450 enzymes; details: humans
[2] = humans

CCCN[C@H]1CCc2nc(N)sc2C1 [Pramipexole, (S)-2-amino-4,5,6,7,-tetrahydro-6-(propylamino)benzothiazole]
Interaction with hepatic cytochrome P450 enzymes [1]: no significant interaction with hepatic cytochrome P450 enzymes | Half-life [2]: long half-life | Oral bioavailability [2]: high oral bioavailablity
